# Data: patent publication US5739112A, “Inhibitors of factor Xa” (Corvas International, Inc., priority 1995, dated 1998)
# pIC50, pKi: −log10 of the molar value. Square brackets hold non-standard residues; d marks the D form. Peptide text beside a SMILES is read from it. * marks the point of attachment. 1Nal = N[C@@H](Cc1cccc2ccccc12)C(=O)O; Boc = CC(C)(C)OC(=O)*
# Experiments:
# Human factor XIa [1] = details: Turner et al., p. 4932; cited from earlier work
# human thrombin [2] = target: T1, human thrombin (Homo sapiens, UniProt P00734); details: Turner et al., p. 4932; cited from earlier work
# Human factor Xa [3] = target: T2, Human factor Xa (Homo sapiens, UniProt P00742); details: Turner et al., p. 4932; cited from earlier work
# T2 construct: Human factor X contains a light-chain subunit containing 139 amino acid residues; purchased Enzyme Research Laboratories
# human thrombin [4] = target: T1, human thrombin; details: Hitomi et al., p. 166; read-out: inhibitor constant, human thrombin; cited from earlier work
# Human factor Xa [5] = target: T2, Human factor Xa; details: Hitomi et al., p. 166; read-out: inhibitor constant, human factor Xa; cited from earlier work
# [6] = target: T3, Human recombinant t-PA (Activase) (Homo sapiens, UniProt P00750); assay: tPA assay (substrate Pefachrome tPA); format: biochemical
# T3 construct: purchased Genentech, Inc. Activase
# Protocol: (§1) To assay their activities, the compounds of the present invention are dissolved in buffer to give solutions containing concentrations ranging under assay concentrations from 0 to about 100 μM. The enzyme to be tested is then added to a solution containing a specified concentration of the test compound. Then after an incubation period, synthetic substrate for the enzyme being tested is added. The rate of substrate turnover is determined spectrophotometrically. The IC50 of the test compound is determined for each test compound in assays for factor Xa, factor XIa, thrombin and tPA. IC50 is that concentration of test compound giving 50% inhibition of the substrate turnover. Percent selectivity is used to indicate selectivity of a compound in inhibiting Factor Xa in comparison with either Factor XIa, thrombin or tPA. Percent selectivity of a particular compound for either Factor XIa, thrombin or tPA refers to a number obtained by dividing the product of one hundred and the IC50 of the compound for Factor Xa by the IC50 of the compound for either Factor XIa, thrombin or tPA.
# (§2) The specificity of the peptide aldehydes through was determined by measurement of their IC50 against factor Xa, factor XIa, thrombin and tissue plasminogen activator (tPA). Peptide aldehyde which has been described in the art was run as a comparison. A specific concentration of enzyme and its substrate were challenged with varying concentrations: of inhibitor. IC50 is that concentration of inhibitor giving 50% inhibition of catalytic activity, under the assay conditions Specific assay procedures used are presented below.
# Enzyme activity was determined using as substrate, Pefachrome tPA (O-methylsulfonate-D-hexahydrotyrosine-L-glycyl-L-argini ne-p-nit roanilide acetate salt) which was obtained from Centerchem, Inc. The substrate was made up in deionized water prior to use.
# Human recombinant t-PA (Activase®) was obtained. from Genentech, Inc. The enzyme was reconstituted with water, then diluted into TBSA prior to use.
# The assay was run by combining in appropriate wells 50 μL of TBSA, 50 μL of inhibitor in TBSA or TBSA (as negative control) and 50 μL of 4 nM human recombinant tPA or TBSA (as background control). After incubating this mixture for 60 minutes at room temperature, 50 μL of 4 mM Pefachrome tPA was added to each well and the initial rate of the change of optical density at 405 nm (OD405 nm) for each well was determined. OD405 nm was measured every 10 seconds for 5 minutes.
# Human α-thrombin = target: T4, Human α-thrombin (Homo sapiens, UniProt P00734); assay: Thrombin assay (chromogenic substrate S-2238); format: biochemical
# T4 construct: purchased Enzyme Research Laboratories, Inc
# Protocol: as §1, §2
# Enzyme activity was determined using as substrate, S2238 (D-phenylalanyl-L-pipecolyl-L-arginine-p-nitroanilide dihydrochloride) which was obtained from Kabi Diagnostica. The substrate was made up in deionized water prior to use.
# Human α-thrombin was obtained from Enzyme Research Laboratories, Inc. The enzyme was diluted into TBSA prior to use.
# The assay was run by combining in appropriate wells 50 μL of TBSA, 50 μL of inhibitor in TBSA or TBSA (as negative control) and 50 μL of 4 nM human α-thrombin or TBSA (as background control). After incubating this mixture for 60 minutes at room temperature, 50 μL of 0.24 mM S-2238 was added to each well and the initial rate of the change of optical density at 405 nm (OD405 nm) for each well was determined. OD405 nm was measured every 10 seconds for 5 minutes.
# Human factor XIa [7] = target: T5, Human factor XIa (Homo sapiens, UniProt P03951); assay: Factor XIa assay (chromogenic substrate S-2366); format: biochemical
# T5 construct: purchased Enzyme Research Laboratories, Inc
# Protocol: as §1, §2
# Enzyme activity was determined using as substrate, S2366 (L-pyroglutamyl-L-prolyl-L-arginine-p-nitroanilide hydrochloride) which was obtained from Kabi Diagnostica. The substrate was made up in deionized water prior to use.
# Human factor XIa was obtained from Enzyme Research Laboratories, Inc. The enzyme was diluted into TBSA prior to use.
# The assay was run by combining in appropriate wells 50 μL of TBSA, 50 μL of inhibitor in TBSA or TBSA (as negative control) and 50 μL of 2 nM human Factor Xia or TBSA (as background control). After incubating this mixture for 60 minutes at room temperature, 50 μL of 6 mM S-2366 was added to each well and the initial rate of the change of the optical density at 405 nm (OD405 nm) for each well was determined. OD405 nm was measured every 10 seconds for 5 minutes.
# Human factor Xa [8] = target: T2, Human factor Xa; assay: Factor Xa assay (chromogenic substrate S-2765); format: biochemical
# Protocol: as §1, §2
# Enzyme activity was determined using as substrate, S2765 (N-a-benzyloxycarbonyl-D-argininyl-L-glycyl-L-arginine-p-nitroanilide dihydrochloride) which was obtained from Kabi Diagnostica. The substrate was made up in deionized water prior to use.
# Human factor Xa was obtained from Enzyme Research Laboratories. The enzyme was diluted into TBSA prior to use.
# The assay was run by combining in appropriate wells 50 μL of TBSA, 50 μL of inhibitor in TBSA or TBSA (as negative control) and 50 μL of 2 nM human Factor Xa or TBSA (as background control). After incubating this mixture for 60 minutes at room temperature, 50 μL of 1 mM S-2765 was added to each well and the initial rate of the change of the optical density at 405 nm (OD405 nm) for each well was determined. OD405 nm was measured every 10 seconds for 5 minutes.
# [9] = 60 min preincubation at room temperature, >25 means less than 50% inhibition at 25 μM
# T2 sequence (P00742 235-488 limits assumed): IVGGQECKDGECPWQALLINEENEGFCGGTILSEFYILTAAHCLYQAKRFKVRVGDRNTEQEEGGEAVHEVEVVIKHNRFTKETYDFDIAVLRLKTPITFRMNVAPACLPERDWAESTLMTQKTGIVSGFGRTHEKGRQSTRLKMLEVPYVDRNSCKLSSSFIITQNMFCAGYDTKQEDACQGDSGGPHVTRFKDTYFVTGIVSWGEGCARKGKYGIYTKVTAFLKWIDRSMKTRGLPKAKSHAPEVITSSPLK
# T2 sequence (P00742 41-179 partner limits assumed): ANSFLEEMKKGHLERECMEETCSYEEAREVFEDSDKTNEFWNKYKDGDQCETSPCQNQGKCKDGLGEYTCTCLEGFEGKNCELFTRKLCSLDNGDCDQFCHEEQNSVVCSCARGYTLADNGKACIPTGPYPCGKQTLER
# T5 sequence (P03951 388-625 limits assumed): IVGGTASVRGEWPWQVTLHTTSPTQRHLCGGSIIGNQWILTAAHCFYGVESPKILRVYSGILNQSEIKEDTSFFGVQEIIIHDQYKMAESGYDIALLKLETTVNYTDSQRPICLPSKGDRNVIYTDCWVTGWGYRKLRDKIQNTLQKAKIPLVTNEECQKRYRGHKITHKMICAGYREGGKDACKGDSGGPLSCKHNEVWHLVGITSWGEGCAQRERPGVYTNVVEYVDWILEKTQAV
# T5 sequence (P03951 19-387 partner limits assumed): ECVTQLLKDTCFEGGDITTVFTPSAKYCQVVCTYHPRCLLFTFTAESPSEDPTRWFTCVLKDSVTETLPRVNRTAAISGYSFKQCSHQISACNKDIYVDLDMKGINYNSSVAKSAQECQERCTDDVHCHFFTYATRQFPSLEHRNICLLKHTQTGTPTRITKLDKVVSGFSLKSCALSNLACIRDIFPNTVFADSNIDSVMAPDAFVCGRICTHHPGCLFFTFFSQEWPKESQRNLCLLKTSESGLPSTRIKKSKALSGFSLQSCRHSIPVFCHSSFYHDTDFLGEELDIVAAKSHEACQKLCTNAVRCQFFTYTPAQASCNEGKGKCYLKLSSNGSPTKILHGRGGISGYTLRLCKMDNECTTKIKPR
# T3 sequence (P00750 36-562): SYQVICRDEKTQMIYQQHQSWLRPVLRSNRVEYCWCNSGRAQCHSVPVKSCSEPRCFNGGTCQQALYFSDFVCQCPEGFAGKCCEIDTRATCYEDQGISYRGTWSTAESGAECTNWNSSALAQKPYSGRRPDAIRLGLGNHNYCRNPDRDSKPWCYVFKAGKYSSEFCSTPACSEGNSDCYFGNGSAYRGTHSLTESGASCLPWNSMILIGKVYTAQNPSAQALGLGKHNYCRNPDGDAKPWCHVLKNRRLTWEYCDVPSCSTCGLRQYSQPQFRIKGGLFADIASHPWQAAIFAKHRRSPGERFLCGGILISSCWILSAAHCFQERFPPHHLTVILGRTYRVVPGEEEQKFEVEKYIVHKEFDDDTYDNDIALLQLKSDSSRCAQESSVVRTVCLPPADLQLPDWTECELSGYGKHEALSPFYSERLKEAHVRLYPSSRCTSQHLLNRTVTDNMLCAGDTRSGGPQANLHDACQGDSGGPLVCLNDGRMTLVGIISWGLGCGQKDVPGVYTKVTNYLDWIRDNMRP
structure (smiles),measurement,setting,value
CC(=Cc1ccccc1)C(=O)Oc1ccc(C(=N)N)cc1 [p-Amidinophenyl α-methylcinnamate],"second-order rate constant of inactivation, human factor XIa",Human factor XIa [1],2670 M⁻¹ s⁻¹
same,"second-order rate constant of inactivation, human thrombin",human thrombin [2],2670 M⁻¹ s⁻¹
same,"second-order rate constant of inactivation, human factor Xa",Human factor Xa [3],1650 M⁻¹ s⁻¹
"N=C(N)c1ccc2cc(OC(=O)c3ccc(N=C(N)N)cc3)ccc2c1 [FUT-75, 6-amidino-2-naphthyl-p-guanidinobenzoate dimethanesulfonate]",pKi,human thrombin [4],5.89
same,pKi,Human factor Xa [5],5.39
"CC(C)(C)OC(=O)N[C@H](Cc1ccccc1)C(=O)N[C@@H](Cc1cccc2ccccc12)C(=O)N[C@H](C=O)CCCNC(=N)N [[5], N-t-butoxycarbonyl-D-phenylalanyl-L-3-(1-naphthyl)alanyl-L-argininal] (Boc-[dF]-[1Nal]-Arg-aldehyde)",Percent Selectivity tPA,[6]; 100 times IC50 for factor Xa divided by IC50 for tPA,< 0.1
same,pIC50,[6]; [9],< 4.60
same,Percent Selectivity Thrombin,Human α-thrombin; 100 times IC50 for factor Xa divided by IC50 for thrombin,0.2
same,pIC50,Human α-thrombin; [9],4.89
same,Percent Selectivity XIa,Human factor XIa [7]; 100 times IC50 for factor Xa divided by IC50 for factor XIa,0.2
same,pIC50,Human factor XIa [7]; [9],4.85
same,pIC50,"Human factor Xa [8]; 60 min preincubation at room temperature, TBSA pH 7.4",7.52
same,Percent Selectivity Xa,Human factor Xa [8]; taken as 100 by definition,100
